Several values for one entry are separate records, joined by “and”; a condition that tells them apart may be missing. Equal values may be shown once. Read-outs that look alike come from different tables or passages of the source.
How the values were obtained:
[1] = tested on: Staphylococcus aureus (S. aureus) ATCC 6538; assay: Quantitative antimicrobial assessment (MIC) against S. aureus; assay type: cell-based; conditions: esters vs free acid, Gram positive strain context
A549 cell line = assay: SRB cytotoxicity assay, A549 lung cancer cell line; conditions: Homo sapiens, A549, 72 h, read-out: Cytotoxicity IC50 value, A549 cell line
Protocol: (§1) All reagents and chemicals of analytical grade were obtained from Sigma (Dorset, UK); unless stated otherwise. All chemicals, reagents and solvents (of analytical grade) were used directly without further purification. MCF7 cell line ATCC® HTB-22™, T47D cell line ATCC® HTB-133™, K562 cell line ATCC® CCL-243™, Panc1 cell line ATCC® CRL-1469™. A375.S2 cell line ATCC® CRL-1872™, A549 cell line ATCC® CCL-185™, HELA cell line ATCC® CCL-2™ were cultured in Dulbecco’s modified eagle’s medium (DMEM). (DMEM) containing foetal bovine serum (FBS) (Bio Whittaker, Verviers, Belgium), 4-(2-hydroxyethyl)-1-piperazine ethane sulfonic acid (HEPES) Buffer, L-glutamine, gentamicin, penicillin, and streptomycin sulphate (Sigma, St. Luis, MO, USA), trypsin, trypan blue, Ciprofloxacin HCl from Aarti drugs Ltd/India, was a kind gift from Pharma International Company- Amman; Fluconazole from Neopharma, United Arab Emirates, a kind gift from Pharmaceutical Research Unit, Amman; Trypon soya agar (TSA), trypon soya broth (TSB), sabouraud dextrose agar (SDA) were obtained from Liofilchem (Italy) or Oxoid LTD (Basingstoke, England), they were reconstituted and sterilized by autoclave at 121 °C for 15 min.
(§2) The cytotoxicity measurements were determined using Sulforhodamine B (SRB) colorimetric assay for cytotoxicity screening. The mechanism of reduction of cell viability was adopted as described previously (Arabiyat et al., 2016a,b; 2017; Alabsi et al., 2018; Jumah, 2018; AlShahrabi et al., 2020). Human periodontal ligament fibroblasts (PDL) are a primary normal cell culture for verification of selective cytotoxicity. […] Selectivity ratio as indicative factor of the safety of compounds was calculated by dividing IC50 of tested compound on normal fibroblasts by IC50 of the same compound on specific pathological cell line (Hoffman et al., 2011).

A375.S2 cell line = assay: SRB cytotoxicity assay, A375.S2 melanoma cell line; conditions: Homo sapiens, A375-S2, 72 h, read-out: Cytotoxicity IC50 value, A375.S2 cell line
Protocol: as §1, §2

MCF7 cell line = assay: SRB cytotoxicity assay, MCF7 breast cancer cell line; conditions: Homo sapiens, MCF7, 72 h, read-out: Cytotoxicity IC50 value, MCF7 cell line
Protocol: as §1, §2

HELA cell line = assay: SRB cytotoxicity assay, HELA cervical cancer cell line; conditions: Homo sapiens, HeLa, 72 h
Protocol: as §1, §2

K562 cell line = assay: SRB cytotoxicity assay, K562 leukaemia cell line; conditions: for IC50: Homo sapiens, K562, 72 h
Protocol: as §1, §2

PANC 1 cell line = assay: SRB cytotoxicity assay, PANC 1 pancreatic cancer cell line; conditions: Homo sapiens, PANC-1, 72 h, read-out: Cytotoxicity IC50 value, PANC 1 cell line
Protocol: as §1, §2

T47D cell line = assay: cells; conditions: Homo sapiens, T47D, 72 h, read-out: Cytotoxicity IC50 value, T47D cell line
Protocol: as §1, §2

PDL Fibroblasts = assay: SRB cytotoxicity on normal periodontal ligament fibroblasts, selective cytotoxicity; assay type: cell-based, Human; conditions: for IC50: Homo sapiens, Fibroblast, normal fibroblasts, SRB, 72 h, mean ± SD; for Selectivity index SI (HELA): IC50 on PDL fibroblasts divided by IC50 on HELA; for Selectivity index SI (A375.S2): IC50 on PDL fibroblasts divided by IC50 on A375.S2; for Selectivity index SI (K562): IC50 on PDL fibroblasts divided by IC50 on K562; for Selectivity index SI (PANC 1): IC50 on PDL fibroblasts divided by IC50 on PANC 1
Protocol: as §2

[2] = read-out: Cytotoxicity IC50 value, HELA cell line, SRB, 72 h, 0.1-200 μg/mL range, mean ± SD, value in brackets
[3] = read-out: Cytotoxicity IC50 value, HELA cell line, SRB, 72 h, 0.1-200 μg/mL range, mean ± SD, NI = lack of cytotoxicity in range
[4] = read-out: Cytotoxicity IC50 value, K562 cell line, SRB, 72 h, 0.1-200 μg/mL range, mean ± SD, value in brackets
[5] = read-out: Cytotoxicity IC50 value, K562 cell line, SRB, 72 h, 0.1-200 μg/mL range, mean ± SD, NI = lack of cytotoxicity in range
[6] = 0.1-200 μg/mL range, NI = lack of cytotoxicity in range

Compound | Antibacterial activity (in words) [1] | IC50 (A549 cell line) | IC50 (A375.S2 cell line) | IC50 (MCF7 cell line) | IC50 (HELA cell line; [2]) | IC50 (HELA cell line; [3]) | IC50 (K562 cell line; [4]) | IC50 (K562 cell line; [5]) | IC50 (PANC 1 cell line) | IC50 (T47D cell line) | IC50 (PDL Fibroblasts; [6]) | IC50 (PDL Fibroblasts; value in brackets) | Selectivity index SI (HELA) (PDL Fibroblasts) | Selectivity index SI (A375.S2) (PDL Fibroblasts) | Selectivity index SI (K562) (PDL Fibroblasts) | Selectivity index SI (A562) (PDL Fibroblasts; IC50 on PDL fibroblasts divided by IC50 on the cell line printed as A562) | Cytotoxicity IC50 value, K562 cell line (K562 cell line; SRB, 72 h, 0.1-200 μg/mL range, mean ± SD, value in brackets) | Selectivity index SI (PANC 1) (PDL Fibroblasts)
CCOC(=O)c1cn(C2CC2)c2c([N+](=O)[O-])c(Nc3ccccc3OC)c(F)cc2c1=O [2A] | lacked antibacterial activity | – | – | – | – | – | – | – | – | – | – | – | – | – | – | – | – | –
CCCCCCc1ccc(Nc2c(F)cc3c(=O)c(C(=O)O)cn(C4CC4)c3c2[N+](=O)[O-])cc1 [3f, 1-cyclopropyl-6-fluoro-7-(4-hexyl-phenylamino)-8-nitro-4-oxo-1,4-dihydro-quinoline-3-carboxylic acid] | – | 63.9 µM and 29.9 µg/mL | 63.1 µM and 29.5 µg/mL | 135 µM and 63.3 µg/mL | 3.48 µg/mL | 7.44 ± 0.78 µM | 30 µg/mL | 64.1 ± 4.78 µM | 1.67 mM and 779 µg/mL | 141 µM and 66 µg/mL | 119 ± 19.7 µM | 55.7 µg/mL | 16.01 | – | – | – | – | –
CCc1ccc(Nc2c(F)cc3c(=O)c(C(=O)O)cn(C4CC4)c3c2[N+](=O)[O-])cc1 [3d, 1-cyclopropyl-6-fluoro-7-(4-ethyl-phenylamino)-8-nitro-4-oxo-1,4-dihydro-quinoline-3-carboxylic acid] | – | > 200 µg/mL | 372 µM and 153 µg/mL | > 200 µg/mL | – | > 200 µg/mL | – | > 200 µg/mL | > 200 µg/mL | > 200 µg/mL | 728 ± 119 µM | 300 µg/mL | – | 1.95 | – | – | – | –
Nc1c(NC2CCCCC2)c(F)cc2c(=O)c(C(=O)O)cn(C3CC3)c12 [8a, 8-amino-7-cyclohexylamino-1-cyclopropyl-6-fluoro-4-oxo-1,4-dihydro-quinoline-3-carboxylic acid] | – | 44 µM and 15.8 µg/mL | 3.69 µM and 1.33 µg/mL | > 200 µg/mL | 45 µg/mL | 125 ± 21.9 µM | 24.4 µg/mL | 67.9 ± 6.76 µM | 137 µM and 49.1 µg/mL | 148 µM and 53.2 µg/mL | 49.4 ± 2.71 µM | 17.8 µg/mL | – | 12.48 | – | – | – | –
CCn1cc(C(=O)O)c(=O)c2cc(F)c(Nc3ccccc3OC)c(N)c21 [12a, 8-amino-1-ethyl-6-fluoro-7-(2-methoxy-phenylamino)-4-oxo-1,4-dihydro-quinoline-3-carboxylic acid] | – | > 200 µg/mL | 373 µM and 138 µg/mL | 125 µM and 46.5 µg/mL | 9.45 µg/mL | 25.4 ± 3.92 µM | 7.79 µg/mL | 21 ± 0.62 µM | 142 µM and 52.6 µg/mL | 83.5 µM and 31 µg/mL | 170 ± 15.1 µM | 63.2 µg/mL | – | – | 8.10 | – | – | –
COc1ccc(-n2nnc3c4c(cc(F)c32)c(=O)c(C(=O)O)cn4C2CC2)cc1 [5c, 9-cyclopropyl-4-fluoro-3-(4-methoxy-phenyl)-6-oxo-6,9-dihydro-3H-[1,2, and 3] triazolo [4,5-h] quinoline-7-carboxylic acid] | – | 427 µM and 168 µg/mL | 453 µM and 178 µg/mL | > 200 µg/mL | 179 µg/mL | 454 ± 19.1 µM | 97.4 µg/mL | 248 ± 44.6 µM | > 200 µg/mL | 398 µM and 156 µg/mL | 496 ± 52.5 µM | 195 µg/mL | – | – | 2.00 | – | – | –
CCc1ccc(Nc2c(F)cc3c(=O)c(C(=O)O)cn(C4CC4)c3c2N)cc1 [4d, 8-Amino-1-cyclopropyl-6-fluoro-7-(4-ethyl-phenylamino)-4-oxo-1,4-dihydro-quinoline-3-carboxylic acid] | – | 20.2 µM and 7.72 µg/mL | 47 µM and 17.9 µg/mL | 21.3 µM and 8.14 µg/mL | 51.7 µg/mL | 136 ± 4.58 µM | 15.9 µg/mL | 41.8 ± 4.98 µM | 65.3 µM and 24.9 µg/mL | 53.7 µM and 20.5 µg/mL | 50.4 ± 4.28 µM | 19.2 µg/mL | – | – | – | 2.49 | – | –
COc1ccc(Nc2c(F)cc3c(=O)c(C(=O)O)cn(C4CC4)c3c2[N+](=O)[O-])cc1 [3c, 1-cyclopropyl-6-fluoro-7-(4-methoxy-phenylamino)-8-nitro-4-oxo-1,4-dihydro-quinoline-3-carboxylic acid] | – | 64.4 µM and 26.6 µg/mL | 274 µM and 113 µg/mL | 54.2 µM and 22.4 µg/mL | 81.7 µg/mL | 198 ± 11.1 µM | 32.7 µg/mL | 79.1 ± 8.69 µM | 40.7 µM and 16.8 µg/mL | 66 µM and 27.3 µg/mL | 107 ± 5.61 µM | 44.3 µg/mL | – | – | – | – | 16.83 ± 0.15 µg/mL | 2.63
CCn1cc(C(=O)O)c(=O)c2cc(F)c(Nc3ccc(OC)cc3OC)c([N+](=O)[O-])c21 [11c, 7-(2,4-dimethoxy-phenylamino)-1-ethyl-6-fluoro-8-nitro-4-oxo-1,4-dihydro-quinoline-3-carboxylic acid] | – | > 200 µg/mL | > 200 µg/mL | > 200 µg/mL | – | > 200 µg/mL | – | > 200 µg/mL | 124 µM and 53.3 µg/mL | 431 µM and 186 µg/mL | 285 ± 28.7 µM | 123 µg/mL | – | – | – | – | – | 2.31
O=C(O)c1cn(C2CC2)c2c([N+](=O)[O-])c(NC3CCCCC3)c(F)cc2c1=O [7a, 7-cyclohexylamino-1-cyclopropyl-6-fluoro-8-nitro-4-oxo-1,4-dihydro-quinoline-3-carboxylic acid] | – | 240 µM and 93.6 µg/mL | 246 µM and 102 µg/mL | > 200 µg/mL | 0.16 µg/mL | 0.4 ± 0.05 µM | 11 µg/mL | 28.2 ± 2.04 µM | 13.2 µM and 5.15 µg/mL | 51.2 µM and 19.9 µg/mL | 29.9 ± 3.56 µM | 11.6 µg/mL | 74.66 | – | – | – | – | –

— article PMC8325119, “A Novel Class of Functionalized Synthetic Fluoroquinolones with Dual Antiproliferative - Antimicrobial Capacities” (Asian Pacific Journal of Cancer Prevention : APJCP, 2021)
